Literature values, collected in patent publication US8158770B2, “Content dependent inhibitors of cytidine deaminases and uses thereof” (University of Rochester, priority 2004, dated 2012).

Columns and labels:
[1] = by comparison to 5-aza-dC and ara-C
[2] = by comparison to 5-aza-dC and ara-C; remark: listed apart in the source

chemically stable in aqueous solution, up to pH [2]: ≤ 12 pH
SMILES: O=c1ncccn1[C@@H]1O[C@H](CO)[C@@H](O)[C@H]1O [zebularine, 1-(beta-D-ribofuranosyl)-1,2-dihydropyrmidin-2-one]
cytotoxicity [1]: considerably less cytotoxic
